# From patent US20090227619A1, “Harmine derivatives, intermediates used in their preparations, preparation processes and use therefo” (priority 2003, published 2009)
# Values joined by “and” are separate entries in the source; they are usually repeats but may differ in a detail not shown here. Equal entries are not always repeated. Where two headings read alike, the source gives them in different places.
# Assays:
# [1] = tested on: HepG2; test: In vitro cytotoxicity, IC50 by MTT method, HepG2; format: cell-based, human
# Protocol: (§1) Culture medium powder RPMI1640 was dissolved in a proper amount of tri-distilled water according to the instruction of the product. […] It was the basic culture solution. The complete culture solution was added with FBS having a final concentration of 10%, 100 U/ml penicillin and 100 µg/ml streptomycin. The solution was fully stirred by a magnetic blender, and the pH of the solution was adjusted to 6.8-7.0. The volume was kept constant. After being filtered and disinfected, the solution was kept into several containers which were sealed and stored at 4° C.
# (§2) The cells were placed in a culture dish followed by the addition of complete culture liquid RPMI1640 and then cultured in a incubator comprising 5% CO2 at 37° C. In the exponential growth phase, the cells grew vigorously. If the culture liquid became yellow, the liquid should be replaced instantly.
# (§3) The cells, at a concentration of 10^5/ml, were inoculated at a 96-pore culture plate. In each pore, 100 μl cells were inoculated. The cells were placed in a CO2 incubator until the cells were in the logarithmic growth phase. The samples to be tested were added according to the preset concentration gradient. For each gradient, the test was conducted at least three times. An equivalent amount of solvent for dissolving the samples was added in the control group. After 48 h of culture, each pore was added 20 μl MTT (5 mg/ml). The cells were cultured at 37° C. for 4 h. After the supernatant was carefully removed, 100 μl DMSO was added in each pore. The plate was agitated for about 10 minutes such that the precipitates were dissolved. After that, OD value was identified with a Microplate Reader at the wavelength of 490 nm. The survival rate of the cells at various concentrations was calculated according to the following formula:
# (§4) Survival rate %=average OD value of the sample group/average OD value of the control group×100%
# (§5) Plots of log survival rate of the cells vs. concentration of the medicament were constructed, and the IC50 value of each sample was calculated according to graphing methods.
# [2] = tested on: Lovo; test: In vitro cytotoxicity, IC50 by MTT method, Lovo; format: cell-based
# Protocol: as §1, §2, §3, §4, §5
# [3] = tested on: PLA-801; test: In vitro cytotoxicity, IC50 by MTT method, PLA-801; format: cell-based
# Protocol: as §1, §2, §3, §4, §5
# [4] = tested on: BGC-823; test: In vitro cytotoxicity, IC50 by MTT method, BGC-823; format: cell-based
# Protocol: as §1, §2, §3, §4, §5
# [5] = tested on: Bel-7402; test: In vitro cytotoxicity, IC50 by MTT method, Bel-7402; format: cell-based
# Protocol: as §1, §2, §3, §4, §5
# [6] = tested on: NIH3T3; test: In vitro cytotoxicity, IC50 by MTT method, NIH3T3; format: cell-based
# Protocol: as §1, §2, §3, §4, §5
# [7] = tested on: Hela; test: In vitro cytotoxicity, IC50 by MTT method, Hela; format: cell-based
# Protocol: as §1, §2, §3, §4, §5
# [8] = tested on: S180 sarcoma; conditions: S180 sarcoma, Dosage 30 (mg/ml), ip × 7qd, listed as CTX
# [9] = tested on: Lewis lung cancer; conditions: Lewis lung cancer, listed as CTX;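 note: mice implanted subcutaneously in the axilla with Lewis lung tumor cells, treated starting the following day, killed roughly three weeks after implantation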
# [10] = HepG2 cell strain, read-out: IC50 HepG2
# [11] = Lovo cell strain, read-out: IC50 Lovo
# [12] = PLA-801 cell strain, read-out: IC50 PLA-801
# [13] = BGC823 cell strain, read-out: IC50 BGC823
# [14] = Bel7402 cell strain, read-out: IC50 Bel7402
# [15] = NIH3T3 cell strain, read-out: IC50 NIH3T3
# [16] = Hela cell strain, read-out: IC50 Hela
# [17] = Homo sapiens, HepG2, MTT, read-out: IC50
# [18] = Homo sapiens, Lovo, MTT, read-out: IC50
# [19] = Homo sapiens, BGC-823, BGC823, MTT, read-out: IC50
# [20] = Homo sapiens, Bel-7402, BeI7402, MTT, read-out: IC50
# [21] = Mus musculus, NIH3T3, MTT, read-out: IC50
# [22] = Homo sapiens, Hela, MTT, read-out: IC50
Molecule,"IC50 [1, 10] [µM]","IC50 [2, 11] [µM]","IC50 [3, 12] [µM]","IC50 [4, 13] [µM]","IC50 [5, 14] [µM]","IC50 [6, 15] [µM]","IC50 [7, 16] [µM]",further results
"2,9-dibenzyl-β-carbolinium bromate [Compound 89]",30,30,100,60,70,30,20,
"2,9-diethyl-β-carbolinium bromate [Compound 88]",430,2150,1200,1310,1310,630,860,
"2,9-dimethyl-β-carbolinium bromate [Compound 87]",200,1820,280,260,370,380,70,
"COc1ccc2c3ccnc(C)c3n(CCCc3ccccc3)c2c1 [Compound 8, 9-phenylpropyl-7-methoxy-1-methyl-β-carboline]",,,,,,,,"IC50 [1, 17]: 40 µM; IC50 [2, 18]: 30 µM; IC50 ([3]; PLA-801, MTT, read-out: IC50): 50 µM; IC50 [4, 19]: 50 µM; IC50 [5, 20]: 40 µM; IC50 [6, 21]: 20 µM; IC50 [7, 22]: 20 µM"
"COC(=O)c1cc2c(cn1)[nH]c1ccccc12 [Compound 9, methyl β-carboline-3-carboxylate]",,,,,,,,"IC50 ([1]; Homo sapiens, HepG2): 2510 µM; IC50 ([2]; Homo sapiens, LoVo): 170 µM; IC50 [3]: 310 µM; IC50 ([4]; Homo sapiens, BGC-823): 290 µM; IC50 ([5]; Homo sapiens, Bel-7402): 300 µM; IC50 ([6]; Mus musculus, NIH3T3): 200 µM; IC50 ([7]; Homo sapiens, HeLa): 100 µM"
"CCCCOC(=O)c1cc2c(cn1)[nH]c1ccccc12 [Compound 18, butyl β-carboline-3-carboxylate]",,,,,,,,"IC50 [1, 17]: 270 µM; IC50 [2, 18]: 100 µM; IC50 ([3]; PLA-801, MTT, read-out: IC50): 680 µM; IC50 [4, 19]: 390 µM; IC50 [5, 20]: 310 µM; IC50 [6, 21]: 150 µM; IC50 [7, 22]: 290 µM"
"NNC(=O)c1cc2c(cn1)[nH]c1ccccc12 [Compound 20, β-carboline-3-carbohydrazine]",,,,,,,,"IC50 ([1]; HepG2, MTT, read-out: IC50): 360 µM; IC50 ([2]; Lovo, MTT, read-out: IC50): 310 µM; IC50 ([3]; PLA-801, MTT, read-out: IC50): 740 µM; IC50 ([4]; BGC823, MTT, read-out: IC50): 740 µM; IC50 ([5]; BeI7402, MTT, read-out: IC50): 1430 µM; IC50 ([6]; NIH3T3, MTT, read-out: IC50): 320 µM; IC50 ([7]; Hela, MTT, read-out: IC50): 400 µM"
"Nc1cc2c(cn1)[nH]c1ccccc12 [Compound 21, 3-amino-β-carboline]",,,,,,,,"IC50 [1, 17]: 340 µM; IC50 [2, 18]: 240 µM; IC50 ([3]; PLA-801, MTT, read-out: IC50): 570 µM; IC50 [4, 19]: 860 µM; IC50 [5, 20]: 1570 µM; IC50 [6, 21]: 290 µM; IC50 [7, 22]: 310 µM"
"CCOC(=O)c1cc2c3ccccc3n(Cc3c(F)c(F)c(F)c(F)c3F)c2cn1 [Compound 46, ethyl 9-(2′,3′,4′,5′,6′-pentafluoro)benzyl-β-carboline-3-carboxylate]",120,40,50,50,10,60,980,
"CCOC(=O)c1cc2c3ccccc3n(CC(=O)c3ccccc3)c2cn1 [Compound 47, ethyl 9-acetophenone-β-carboline-3-carboxylate]",> 3000,> 3000,> 3000,> 3000,1020,> 3000,> 3000,
"CCn1c2ccccc2c2cc(C(=O)NN)ncc21 [Compound 51, 3-carbohydrazine 9-ethyl-β-carboline]",260,190,510,110,370,510,240,
"NNC(=O)c1cc2c3ccccc3n(Cc3ccccc3)c2cn1 [Compound 52, 3-carbohydrazide-9-benzyl-β-carboline]",140,250,520,270,60,220,250,
"CCOC(=O)c1cc2c3ccccc3n(CC(=O)c3ccccc3)c2c(C)n1 [Compound 61, ethyl 9-acetophenone-1-methyl-β-carboline-3-carboxylate]",70,50,160,90,460,90,60,
"CCCc1nc(C(=O)O)cc2c3ccccc3n(CCCc3ccccc3)c12 [Compound 75, 9-phenylpropyl-1-propyl-β-carboline-3-carboxylic acid]",,,230,,,,,"IC50 ([1]; Homo sapiens, HepG2 cell strain, read-out: IC50 HepG2): 130 µM; IC50 ([2]; Homo sapiens, Lovo cell strain, read-out: IC50 Lovo): 80 µM; IC50 ([4]; Homo sapiens, BGC-823, BGC823 cell strain, read-out: IC50 BGC823): 240 µM; IC50 ([5]; Homo sapiens, Bel-7402, Bel7402 cell strain, read-out: IC50 Bel7402): 200 µM; IC50 ([6]; Mus musculus, NIH3T3 cell strain, read-out: IC50 NIH3T3): 110 µM; IC50 ([7]; Homo sapiens, Hela cell strain, read-out: IC50 Hela): 140 µM"
"CCOC(=O)c1cc2c3ccccc3n(Cc3ccccc3)c2c[n+]1Cc1ccccc1.[O-][I+2]([O-])[O-] [Compound 85, 2,9-dibenzyl-3-ethoxycarbonyl-β-carbolinium iodate]",20,30,30,40,40,20,30,
"O=P1(N(CCCl)CCCl)NCCCO1 (stereo not drawn) [cyclophosphamide, reference compound]",,,,,,,,"Body weight of the animals, beginning, First time ([8]; first time): 19.4 g and 18.7 g; Body weight of the animals, end, First time ([8]; first time): 20.9 g and 22.3 g; Weight of the tumor X ± SD, First time ([8]; first time): 0.33 ± 0.14 g and 0.33 ± 0.12 g; Body weight of the animals, beginning, Second time ([8]; second time): 19.8 g and 20.3 g; Body weight of the animals, end, Second time ([8]; second time): 23.2 g and 20.9 g; Body weight of the animals, end, First time ([9]; Dosage 30 (mg/ml), Iv × 7qd, first time): 21.3 g and 20.2 g; Body weight of the animals, end, Second time ([9]; Dosage 30 (mg/ml), Iv × 7qd, second time): 21.3 g and 21.0 g; Body weight of the animals, beginning, First time ([9]; Dosage 30, Iv × 7qd, first time): 20.1 g and 18.8 g; Body weight of the animals, beginning, Second time ([9]; Dosage 30, Iv × 7qd, second time): 18.9 g and 19.8 g"
